The term IC50 denotes the concentration that gives 50% inhibition.

Molecules are shown by their SMILES. Read-outs that look alike come from different tables or passages of the source.

The target of one experiment is T1, human PRMT1 (Homo sapiens, UniProt Q99873).
T1 construct: GST-tagged PRMT1; made in house; host or cells: High Five insect cells (baculovirus, pFastBac1)
Put plainly: PRMT1 Biochemical Assay. To be noted: peptide substrate, 3H-SAM Flashplate assay; read-out: PRMT1 IC50. The source says: S-adenosylmethionine (SAM), S-adenosylhomocysteine (SAH), bicine, Tween20, dimethylsulfoxide (DMSO), bovine skin gelatin (BSG), and Tris(2-carboxyethyl)phosphine hydrochloride solution (TCEP) were purchased from Sigma-Aldrich at the highest level of purity possible. ^3H-SAM was purchase from American Radiolabeled Chemicals with a specific activity of 80 Ci/mmol. 384-well streptavidin Flashplates were purchased from PerkinElmer.
Recombinant baculovirus were generated according to Bac-to-Bac kit instructions (Life Technologies). […] Infections were carried out at 27° C. for 48 hours, harvested by centrifugation, and stored at −80° C. for purification.
GST-tagged PRMT1 was eluted with 50 mM Tris, 2 mM glutathione, pH 7.8, dialysed in buffer A and concentrated to 1 mg/mL.
General Procedure for PRMT1 Enzyme Assays on Peptide Substrates.
(§1) The assays were all performed in a buffer consisting of 20 mM Bicine (pH=7.6), 1 mM TCEP, 0.005% BSG, and 0.002% Tween 20, prepared on the day of use. […] DMSO (1 ul) was added to Columns 11, 12, 23, 24, rows A-H for the maximum signal control and 1 ul of SAH, a known product and inhibitor of PRMT1, was added to columns 11, 12, 23, 24, rows I-P for the minimum signal control. A cocktail (40 ul) containing the PRMT1 enzyme was added by Multidrop Combi (Thermo-Fisher). The compounds were allowed to incubate with PRMT1 for 30 min at room temperature, then a cocktail (10 ul) containing SAM and peptide was added to initiate the reaction (final volume=51 ul). […] The assays were stopped by the addition of non-radiolabeled SAM (10 ul) to a final concentration of 300 uM, which dilutes the ^3H-SAM to a level where its incorporation into the peptide substrate is no longer detectable. 50 ul of the reaction in the 384-well polypropylene plate was then transferred to a 384-well Flashplate and the biotinylated peptides were allowed to bind to the streptavidin surface for at least 1 hour before being washed once with 0.1% Tween20 in a Biotek ELx405 plate washer. The plates were then read in a PerkinElmer TopCount plate reader to measure the quantity of ^3H-labeled peptide bound to the Flashplate surface, measured as disintegrations per minute (dpm) or alternatively, referred to as counts per minute (cpm).
(§2) Where dpm=disintegrations per minute, cmpd=signal in assay well, and min and max are the respective minimum and maximum signal controls.
(§3) Where top and bottom are the normally allowed to float, but may be fixed at 100 or 0 respectively in a 3-parameter fit. The Hill Coefficient normally allowed to float but may also be fixed at 1 in a 3-parameter fit. Y is the % inhibition and X is the compound concentration.

The target in a further experiment is human PRMT8 (Homo sapiens, UniProt Q9NR22). Put plainly: PRMT8 Biochemical Assay. The following applies: PRMT8 IC50 (uM), peptide substrate, 3H-SAM Flashplate assay.
The test system of experiment [1] is mono-methyl arginine in RKO cells. Nature of the experiment: RKO Methylation Assay, In Cell Western (ICW). Type of experiment: cell-based. The following applies: 72 hours. From the text:
RKO adherent cells were purchased from ATCC (American Type Culture Collection), Manassas, Va., USA. DMEM/Glutamax medium, penicillin-streptomycin, heat inactivated fetal bovine serum, 0.05% trypsin and D-PBS were purchased from Life Technologies, Grand Island, N.Y., USA. Odyssey blocking buffer, 800CW goat anti-rabbit IgG (H+L) antibody, and Licor Odyssey infrared scanner were purchased from Licor Biosciences, Lincoln, Nebr., USA. Mono-methyl arginine antibody was purchased from Cell Signaling Technology, Danvers, Mass., USA. Methanol was purchased from VWR, Franklin, Mass., USA. 10% Tween 20 was purchased from KPL, Inc., Gaithersburg, Md., USA. DRAQ5 was purchased from Biostatus Limited, Leicestershire, UK.
RKO adherent cells were maintained in growth medium (DMEM/Glutamax medium supplemented with 10% v/v heat inactivated fetal bovine serum and 100 units/mL penicillin-streptomycin) and cultured at 37° C. under 5% CO2.
Cell treatment, In Cell Western (ICW) for detection of mono-methyl arginine and DNA content.
Compound (100 nL) from a 96-well source plate was added directly to 384 well cell plate. Plates were incubated at 37° C., 5% CO2 for 72 hours. After three days of incubation, plates were brought to room temperature outside of the incubator for ten minutes and blotted on paper towels to remove cell media. 50 μL of ice cold 100% methanol was added directly to each well and incubated for 30 min at room temperature. After 30 min, plates were transferred to a Biotek EL406 plate washer and washed 2 times with 100 μL per well of wash buffer (1×PBS). Next 60 μL per well of Odyssey blocking buffer (Odyssey Buffer with 0.1% Tween 20 (v/v)) were added to each plate and incubated 1 hour at room temperature. Blocking buffer was removed and 20 μL per well of primary antibody was added (mono-methyl arginine diluted 1:200 in Odyssey buffer with 0.1% Tween 20 (v/v)) and plates were incubated overnight (16 hours) at 4° C. Plates were washed 5 times with 100 μL per well of wash buffer. […] The plates were washed 5 times with 100 μL per well wash buffer then 2 times with 100 μL per well of water. Plates were allowed to dry at room temperature then imaged on the Licor Odyssey machine which measures integrated intensity at 700 nm and 800 nm wavelengths. Both 700 and 800 channels were scanned.
First, the ratio for each well was determined by:
Each plate included fourteen control wells of DMSO only treatment (minimum activation) as well as fourteen control wells for maximum activation treated with 20 μM of a reference compound. The average of the ratio values for each control type was calculated and used to determine the percent activation for each test well in the plate. Reference compound was serially diluted three-fold in DMSO for a total of nine test concentrations, beginning at 20 μM. Percent activation was determined and EC30 curves were generated using triplicate wells per concentration of compound.

The target of the next experiment is T2, human PRMT6 (Homo sapiens, UniProt Q96LA8).
T2 construct: Flag-PRMT6-His; made in house; host or cells: HEK 293F cells (BacMam baculovirus, pFastBacMam)
Put plainly: PRMT6 Biochemical Assay.
Source text: S-adenosylmethionine (SAM), S-adenosylhomocysteine (SAH), bicine, Tween20, dimethylsulfoxide (DMSO), bovine skin gelatin (BSG), sodium butyrate and Tris(2-carboxyethyl)phosphine hydrochloride solution (TCEP) were purchased from Sigma-Aldrich at the highest level of purity possible. ^3H-SAM was purchase from American Radiolabeled Chemicals with a specific activity of 80 Ci/mmol. 384-well streptavidin Flashplates were purchased from PerkinElmer.
Peptide representative of human histone H4 residues 36-50 was synthesized with an N-terminal linker-affinity tag motif and a C-terminal amide cap by 21st Century Biochemicals.
The amplified gene was subcloned into pFastBacMam (Viva Biotech).
Recombinant baculovirus were generated according to Bac-to-Bac kit instructions (Life Technologies). […] Infections were carried out at 37° C. for 48 hours, harvested by centrifugation, and stored at −80° C. for purification.
Column was washed with 20 mM imidazole in the same buffer and Flag-PRMT6-His was eluted with 150 mM imidazole. Pooled fractions were dialysed against buffer Ni-A and further purified by anti-flag M2 affinity chromatography. Flag-PRMT6-His was eluted with 200 ug/ml FLAG peptide in the same buffer. Pooled fractions were dialysed in 20 mM Tris, 150 mM NaCl, 10% glycerol and 5 mM β-mercaptoethanol, pH 7.8.
General Procedure for PRMT6 Enzyme Assays on Peptide Substrates.
as §1, with “PRMT6,” for “PRMT1,”, “PRMT6” for “PRMT1”, “400” for “300”
as §2, §3

Setting [2] is: peptide substrate, 3H-SAM Flashplate assay, read-out: PRMT6 IC50.

Chain of human PRMT8 (Q9NR22 whole entry): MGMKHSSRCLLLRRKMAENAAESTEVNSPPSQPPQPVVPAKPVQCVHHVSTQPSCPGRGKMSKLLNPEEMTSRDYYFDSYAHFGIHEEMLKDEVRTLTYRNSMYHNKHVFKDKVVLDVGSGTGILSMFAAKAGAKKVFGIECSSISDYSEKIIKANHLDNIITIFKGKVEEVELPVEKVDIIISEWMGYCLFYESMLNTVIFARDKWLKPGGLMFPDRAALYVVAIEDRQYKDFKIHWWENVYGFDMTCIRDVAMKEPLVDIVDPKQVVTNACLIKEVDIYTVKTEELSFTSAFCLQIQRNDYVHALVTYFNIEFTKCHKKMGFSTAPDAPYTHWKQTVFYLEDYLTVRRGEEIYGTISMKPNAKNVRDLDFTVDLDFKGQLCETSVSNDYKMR
T1 sequence (Q99873 with tags, fused parts or gaps): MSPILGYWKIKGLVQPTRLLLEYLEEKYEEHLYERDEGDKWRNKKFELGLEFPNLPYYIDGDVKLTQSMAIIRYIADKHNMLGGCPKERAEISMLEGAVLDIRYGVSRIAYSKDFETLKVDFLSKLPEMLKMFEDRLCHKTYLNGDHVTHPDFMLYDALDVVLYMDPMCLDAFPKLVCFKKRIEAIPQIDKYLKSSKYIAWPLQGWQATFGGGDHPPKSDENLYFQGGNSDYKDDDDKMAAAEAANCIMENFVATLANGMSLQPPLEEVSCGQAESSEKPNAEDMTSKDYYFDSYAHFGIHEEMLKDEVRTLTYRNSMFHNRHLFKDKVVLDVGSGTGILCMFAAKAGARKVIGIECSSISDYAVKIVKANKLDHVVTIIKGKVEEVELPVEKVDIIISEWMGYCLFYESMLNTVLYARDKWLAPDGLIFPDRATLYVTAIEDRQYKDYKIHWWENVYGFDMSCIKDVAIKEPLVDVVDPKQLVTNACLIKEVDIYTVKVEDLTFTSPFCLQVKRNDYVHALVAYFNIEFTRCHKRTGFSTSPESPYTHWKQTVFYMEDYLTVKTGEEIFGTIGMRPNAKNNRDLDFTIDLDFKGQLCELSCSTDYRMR
T2 sequence (Q96LA8 with tags, fused parts or gaps): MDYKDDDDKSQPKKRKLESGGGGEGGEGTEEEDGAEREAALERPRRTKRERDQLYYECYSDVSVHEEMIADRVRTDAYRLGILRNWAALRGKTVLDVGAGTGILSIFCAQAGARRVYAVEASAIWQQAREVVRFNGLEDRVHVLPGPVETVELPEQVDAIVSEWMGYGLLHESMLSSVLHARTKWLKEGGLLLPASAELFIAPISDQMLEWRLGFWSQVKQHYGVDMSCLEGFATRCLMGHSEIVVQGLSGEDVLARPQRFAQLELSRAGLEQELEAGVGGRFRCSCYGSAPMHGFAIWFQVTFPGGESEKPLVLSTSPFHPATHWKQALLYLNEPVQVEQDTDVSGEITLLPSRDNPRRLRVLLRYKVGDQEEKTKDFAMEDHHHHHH
Source text for human PRMT8: S-adenosylmethionine (SAM), S-adenosylhomocysteine (SAH), bicine, Tween20, dimethylsulfoxide (DMSO), bovine skin gelatin (BSG), isopropyl-3-D-thiogalactopyranoside (IPTG), and Tris(2-carboxyethyl)phosphine hydrochloride solution (TCEP) were purchased from Sigma-Aldrich at the highest level of purity possible. ^3H-SAM was purchase from American Radiolabeled Chemicals with a specific activity of 80 Ci/mmol. 384-well streptavidin Flashplates were purchased from PerkinElmer.
E. coli (BL21(DE3) Gold, Stratagene) made competent by the CaCl2 method were transformed with the PRMT8 construct and ampicillin selection. Protein over-expression was accomplished by growing the PRMT8 expressing E. coli clone and inducing expression with 0.3 mM IPTG at 16° C. The culture was grown for 12 hours, harvested by centrifugation, and stored at −80° C. for purification.
GST-tagged PRMT8 was eluted with 50 mM Tris, 2 mM glutathione, pH 7.8. Pooled fractions were cleaved by thrombin (10U) and dialysed in buffer A. GST was removed by reloading the cleaved protein sample onto glutathione sepharose column and PRMT8 was collected in the flow-through fractions. PRMT8 was purified further by ceramic hydroxyapatite chromatography. The column was washed with 50 mM phosphate buffer, 100 mM NaCl, 5% glycerol, 5 mM β-mercaptoethanol, pH 7.8 and PRMT8 was eluted by 100 mM phosphate in the same buffer. Protein was concentrated and buffer was exchanged to 50 mM Tris, 300 mM NaCl, 10% glycerol, 5 mM β-mercaptoethanol, pH 7.8 by ultrafiltration.
General Procedure for PRMT8 Enzyme Assays on Peptide Substrates.
The assays were all performed in a buffer consisting of 20 mM Bicine (pH=7.6), 1 mM TCEP, 0.005% BSG, and 0.002% Tween 20, prepared on the day of use. […] DMSO (1 ul) was added to Columns 11, 12, 23, 24, rows A-H for the maximum signal control and 1 ul of SAH, a known product and inhibitor of PRMT8, was added to columns 11, 12, 23, 24, rows I-P for the minimum signal control. A cocktail (40 ul) containing the PRMT8 enzyme was added by Multidrop Combi (Thermo-Fisher). The compounds were allowed to incubate with PRMT8 for 30 min at room temperature, then a cocktail (10 ul) containing ^3H-SAM and peptide was added to initiate the reaction (final volume=51 ul). […] The assays were stopped by the addition of non-radiolabeled SAM (10 ul) to a final concentration of 400 uM, which dilutes the ^3H-SAM to a level where its incorporation into the peptide substrate is no longer detectable. 50 ul of the reaction in the 384-well polypropylene plate was then transferred to a 384-well Flashplate and the biotinylated peptides were allowed to bind to the streptavidin surface for at least 1 hour before being washed once with 0.1% Tween20 in a Biotek ELx405 plate washer. The plates were then read in a PerkinElmer TopCount plate reader to measure the quantity of ^3H-labeled peptide bound to the Flashplate surface, measured as disintegrations per minute (dpm) or alternatively, referred to as counts per minute (cpm).

In the case of `CNCCN(C)Cc1c[nH]nc1-c1ccc(OCCOc2cccc(OCCC3CCOCC3)c2)cc1` [Compound 14], the values for the IC50 on human PRMT1, against human PRMT8 and on human PRMT6 (setting [2]) were 5.49 nM, 0.0146 µM and 0.00518 µM, respectively. Moreover, the “ICW EC30” value in experiment [1] was determined as 347.3 nM.
For `CNCCN(C)Cc1c[nH]nc1-c1ccc(OCCOc2ccc(Oc3ccc(OCCOC)cc3)cc2)cc1` [Compound 15], in that order: 5.79 nM, 0.0193 µM, 0.00238 µM and 220.1 nM.
For `CNCCN(C)Cc1c[nH]nc1-c1ccc(OCCOc2ccc(CO)cc2)cc1` [Compound 16], in that order: 5.8 nM, 0.0206 µM, 0.0037 µM and 276.3 nM.
Turning to `CCC(CC)Oc1ccc(-n2nccc2CN(C)CCNC)cc1` [Compound 18], the IC50 on human PRMT1 was found to be 5.86 nM; at human PRMT8, 0.0153 µM; on human PRMT6 (PRMT6 IC50 (uM)) it was 0.0678 µM. The “ICW EC30” value in experiment [1] worked out at 91.46 nM.
As for `CCN(CCOc1ccc(OC)cc1)c1ccc(-c2n[nH]cc2CN(C)CCNC)cc1` [Compound 20], the 50% inhibitory concentration (IC50) on human PRMT1 was found to be 6.16 nM; on human PRMT8, 0.0199 µM; on human PRMT6 (setting [2]), 0.0169 µM. For the same compound, the “ICW EC30” value in experiment [1] turned out to be 336.2 nM.
For `CNCCN(C)Cc1c[nH]nc1-c1ccc(OCCOc2ccc(C(O)CO)cc2)cc1` (stereo not shown) [Compound 21], in that order: 6.23 nM, 0.026 µM, 0.00616 µM and 3184 nM.
For the compound `CNCCN(C)Cc1c[nH]nc1-c1cc(F)c(OC2COC2)c(C(F)(F)F)c1` [Compound 23], the IC50 was determined as 6.47 nM on human PRMT1, 0.0608 µM against human PRMT8 and 0.0169 µM on human PRMT6 (setting [2]). The “ICW EC30” value in experiment [1] amounted to 1296 nM.
For `CNCCN(C)Cc1c[nH]nc1-c1cc(OCCOC)cc(C(F)F)c1` [Compound 24], in that order: 6.5 nM, 0.132 µM, 0.212 µM and 1251 nM.
The matching figures for `CNCCN(C)Cc1c[nH]nc1-c1ccc(OCCc2ccccc2)cc1` [Compound 25]: 6.68 nM, 0.0173 µM, 0.011 µM and 97 nM.
Take `CNCCN(C)Cc1c[nH]nc1-c1cc(F)c(Cl)c(C(F)(F)F)c1` [Compound 27]: the IC50 amounted to 6.75 nM at human PRMT1, 0.037 µM against human PRMT8 and 0.0214 µM on human PRMT6 (setting [2]). Moreover, the “ICW EC30” value in experiment [1] worked out at 377 nM.
The matching figures for `COCCOc1cc(-c2n[nH]cc2CN(C)CCN)cc(C(F)F)c1` [Compound 29]: 6.94 nM, 0.112 µM, 0.276 µM and 5437 nM.
In the case of `CN(CCN)Cc1c[nH]nc1-c1cc(F)c(Cl)c(C(F)(F)F)c1` [Compound 30], the IC50 was found to be 7.05 nM at human PRMT1, 0.0608 µM at human PRMT8 and 0.0135 µM at human PRMT6 (setting [2]). The “ICW EC30” value in experiment [1] turned out to be 648 nM.
On to `CNCCN(C)Cc1c[nH]nc1-c1ccc(OCCOc2cccc(OCCC(O)CO)c2)cc1` (stereo not shown) [Compound 31], for which the half-inhibitory concentration (IC50) on human PRMT1 is 7.08 nM; against human PRMT8, 0.02 µM; on human PRMT6 (setting [2]), 0.00432 µM. The “ICW EC30” value in experiment [1] was found to be 2325.4 nM.
The matching figures for `CNCCN(C)Cc1c[nH]nc1-c1ccc(OCCOc2ccc(OC(C)C)cc2)cc1` [Compound 33]: 7.37 nM, 0.0233 µM, 0.00562 µM and 232 nM.
The matching figures for `CNCCN(C)Cc1c[nH]nc1[C@H]1CC[C@@H](OCCOc2ccc(OCCOC)cc2)CC1` [Compound 34]: 7.37 nM, 0.0135 µM, 0.0267 µM and 80.13 nM.
With `CNCCN(C)Cc1c[nH]nc1-c1ccc(OCCOc2ccc(OCCC(O)CO)cc2)cc1` (stereo not shown) [Compound 35], the IC50 on human PRMT1 was 7.59 nM; against human PRMT8, 0.0219 µM; on human PRMT6 (setting [2]), 0.005 µM. Moreover, the “ICW EC30” value in experiment [1] worked out at 422.7 nM.

(Values after patent US20190077795A1, “ARGININE […] INHIBITORS AND USES THEREOF” (Epizyme, Inc., priority 2014, published 2019).)
